Patent US10875875B2, “Propionic acid derivatives and methods of use thereof” (Aviara Pharmaceuticals, Inc., priority 2017, dated 2020)

What follows are molecules tested against α4β1 (Homo sapiens, UniProt P05556+P13612) (assay: α4β1 integrin inhibition, IC50). Conditions: read-out: α4β1 IC50.
Type: binding

Chain of α4β1 (P13612 34-1032): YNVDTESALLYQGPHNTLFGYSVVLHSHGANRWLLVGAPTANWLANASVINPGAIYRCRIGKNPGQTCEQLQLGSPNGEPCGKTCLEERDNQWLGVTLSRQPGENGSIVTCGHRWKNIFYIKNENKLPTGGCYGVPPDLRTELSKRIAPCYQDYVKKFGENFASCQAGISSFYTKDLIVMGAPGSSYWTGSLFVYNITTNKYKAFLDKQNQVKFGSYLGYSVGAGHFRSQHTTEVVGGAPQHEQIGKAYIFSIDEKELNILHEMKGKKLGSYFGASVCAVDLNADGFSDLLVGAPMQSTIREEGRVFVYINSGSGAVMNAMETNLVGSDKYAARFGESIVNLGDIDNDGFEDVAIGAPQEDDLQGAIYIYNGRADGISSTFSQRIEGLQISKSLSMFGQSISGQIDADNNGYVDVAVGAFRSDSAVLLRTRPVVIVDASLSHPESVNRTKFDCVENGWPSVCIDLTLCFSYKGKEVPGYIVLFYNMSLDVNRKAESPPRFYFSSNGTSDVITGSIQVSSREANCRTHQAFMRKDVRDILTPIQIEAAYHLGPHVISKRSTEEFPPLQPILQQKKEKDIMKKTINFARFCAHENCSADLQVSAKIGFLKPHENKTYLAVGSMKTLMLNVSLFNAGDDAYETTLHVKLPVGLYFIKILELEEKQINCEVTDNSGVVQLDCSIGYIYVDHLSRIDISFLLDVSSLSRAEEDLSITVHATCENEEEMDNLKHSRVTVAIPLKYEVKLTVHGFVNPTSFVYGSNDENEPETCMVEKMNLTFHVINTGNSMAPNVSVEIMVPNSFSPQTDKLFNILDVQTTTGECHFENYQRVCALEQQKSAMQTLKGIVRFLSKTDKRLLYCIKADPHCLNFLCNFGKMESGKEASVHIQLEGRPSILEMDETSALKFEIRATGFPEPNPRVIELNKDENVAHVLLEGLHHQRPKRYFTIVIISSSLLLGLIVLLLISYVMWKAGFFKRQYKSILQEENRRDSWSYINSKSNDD
Chain of α4β1 (P05556 21-798): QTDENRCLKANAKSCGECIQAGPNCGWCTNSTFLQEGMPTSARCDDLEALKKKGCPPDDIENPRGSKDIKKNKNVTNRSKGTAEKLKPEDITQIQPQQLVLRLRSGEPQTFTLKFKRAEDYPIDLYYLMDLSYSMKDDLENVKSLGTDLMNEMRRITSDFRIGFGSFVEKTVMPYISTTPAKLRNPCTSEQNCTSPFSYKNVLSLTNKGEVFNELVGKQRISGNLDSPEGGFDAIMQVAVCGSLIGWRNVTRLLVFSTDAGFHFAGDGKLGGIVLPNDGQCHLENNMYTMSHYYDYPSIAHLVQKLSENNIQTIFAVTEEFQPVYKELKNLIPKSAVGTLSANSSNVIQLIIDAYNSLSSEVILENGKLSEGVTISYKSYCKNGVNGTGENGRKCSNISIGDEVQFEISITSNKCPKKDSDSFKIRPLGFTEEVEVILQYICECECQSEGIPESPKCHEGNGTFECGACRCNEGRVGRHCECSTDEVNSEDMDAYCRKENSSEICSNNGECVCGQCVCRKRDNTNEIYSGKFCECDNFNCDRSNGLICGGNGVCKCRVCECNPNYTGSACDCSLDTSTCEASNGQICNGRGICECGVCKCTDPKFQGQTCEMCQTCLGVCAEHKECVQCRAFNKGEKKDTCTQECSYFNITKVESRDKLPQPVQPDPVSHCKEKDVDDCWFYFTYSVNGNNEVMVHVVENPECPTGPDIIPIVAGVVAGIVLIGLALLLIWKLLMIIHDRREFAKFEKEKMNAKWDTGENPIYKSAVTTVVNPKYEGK

Which IC50 does the source give for `COc1cccc(-c2cc([C@H](CC(=O)O)NC(=O)Nc3c(O)ccn(C)c3=O)ccc2OC(F)(F)F)c1` [1-634, sodium (S)-3-(3′-methoxy-6-(trifluoromethoxy)biphenyl-3-yl)-3-(3-(1-methyl-4-oxido-2-oxo-1,2-dihydropyridin-3-yl)ureido)propanoate] here?
Its IC50 is under 0.02 µM.

For `Cc1cn(C)c(=O)c(NC(=O)N[C@@H](CC(=O)O)c2ccc(F)c(-c3ccccc3)c2)c1O` [1-442, sodium (S)-3-(3-(1,5-dimethyl-4-oxido-2-oxo-1,2-dihydropyridin-3-yl)ureido)-3-(6-fluorobiphenyl-3-yl)propanoate], which IC50 is on record?
Its IC50 is under 0.02 µM.

With `Cn1ccc(O)c(NC(=O)N[C@@H](CC(=O)O)c2cccc(-c3cccc(Cl)c3)c2)c1=O` [1-506, sodium (S)-3-(3′-chlorobiphenyl-3-yl)-3-(3-(1-methyl-4-oxido-2-oxo-1,2-dihydropyridin-3-yl)ureido)propanoate] as the molecule, how does the IC50 read?
Its IC50 is under 0.02 µM.

For `Cn1ccc(O)c(NC(=O)N[C@@H](CC(=O)O)c2cc(-c3cccc(Cl)c3)cs2)c1=O` [1-530, sodium (S)-3-(4-(3-chlorophenyl)thiophen-2-yl)-3-(3-(1-methyl-4-oxido-2-oxo-1,2-dihydropyridin-3-yl)ureido)propanoate], which IC50 is on record?
The IC50 was under 0.02 µM.

`Cn1ccc(O)c(NC(=O)N[C@@H](CC(=O)O)c2cccc(-c3cc[nH]c3)c2)c1=O` [1-544, sodium (S)-3-(3-(1H-pyrrol-3-yl)phenyl)-3-(3-(1-methyl-4-oxido-2-oxo-1,2-dihydropyridin-3-yl)ureido)propanoate] was tested. Which IC50 did it give?
The IC50 was under 0.02 µM.

For `Cn1ccc(O)c(NC(=O)N[C@@H](CC(=O)O)c2cc(F)cc(-c3cccc(OC(F)(F)F)c3)c2)c1=O` [1-607, sodium (S)-3-(5-fluoro-3′-(trifluoromethoxy)biphenyl-3-yl)-3-(3-(1-methyl-4-oxido-2-oxo-1,2-dihydropyridin-3-yl)ureido)propanoate], which IC50 is on record?
The IC50 was under 0.02 µM.

Which IC50 does the source give for `Cc1cn(C)c(=O)c(NC(=O)N[C@@H](CC(=O)O)c2ccc(-c3ccccc3)s2)c1O` [1-628, sodium (S)-3-(3-(1,5-dimethyl-4-oxido-2-oxo-1,2-dihydropyridin-3-yl)ureido)-3-(5-phenylthiophen-2-yl)propanoate] here?
The IC50 was under 0.2 µM.

`Cn1c(=O)c(NC(=O)N[C@@H](CC(=O)O)c2cccc(-c3ccc(F)cc3F)c2)c(O)c2cccnc21` [1-526, sodium (S)-3-(2′,4′-difluorobiphenyl-3-yl)-3-(3-(1-methyl-4-oxido-2-oxo-1,2-dihydro-1,8-naphthyridin-3-yl)ureido)propanoate] was tested. Which IC50 did it give?
Its IC50 is under 0.2 µM.

With `CCn1ccc2ccc(-c3cccc([C@H](CC(=O)O)NC(=O)Nc4c(O)ccn(C)c4=O)c3)cc21` [1-521, sodium (S)-3-(3-(1-ethyl-1H-indol-6-yl)phenyl)-3-(3-(1-methyl-4-oxido-2-oxo-1,2-dihydropyridin-3-yl)ureido)propanoate] as the molecule, how does the IC50 read?
The IC50 was under 0.02 µM.

With `Cc1cc(O)c(NC(=O)N[C@@H](CC(=O)O)c2cccc(-c3cccc(Cl)c3)c2)c(=O)n1C` [1-556, sodium (S)-3-(3′-chlorobiphenyl-3-yl)-3-(3-(1,6-dimethyl-4-oxido-2-oxo-1,2-dihydropyridin-3-yl)ureido)propanoate] as the molecule, how does the IC50 read?
Its IC50 is under 0.02 µM.

Which IC50 does the source give for `Cn1ccc(O)c(NC(=O)N[C@@H](CC(=O)O)c2cccc(-c3ccccn3)c2)c1=O` [1-639, sodium (S)-3-(3-(1-methyl-4-oxido-2-oxo-1,2-dihydropyridin-3-yl)ureido)-3-(3-(pyridin-2-yl)phenyl)propanoate] here?
Its IC50 is under 0.02 µM.

For `COc1ccc(C)c(-c2cccc([C@H](CC(=O)O)NC(=O)Nc3c(O)c(C)cn(C)c3=O)c2)c1` [1-490, sodium (S)-3-(3-(1,5-dimethyl-4-oxido-2-oxo-1,2-dihydropyridin-3-yl)ureido)-3-(5′-methoxy-2′-methylbiphenyl-3-yl)propanoate], which IC50 is on record?
Its IC50 is under 0.2 µM.

How did the IC50 turn out when `Cc1cn(C)c(=O)c(NC(=O)N[C@@H](CC(=O)O)c2cccc(-c3cccc(F)c3F)c2)c1O` [1-496, sodium (S)-3-(2′,3′-difluorobiphenyl-3-yl)-3-(3-(1,5-dimethyl-4-oxido-2-oxo-1,2-dihydropyridin-3-yl)ureido)propanoate] was run?
The IC50 was under 0.2 µM.

How did the IC50 turn out when `COc1cccc(-c2csc([C@H](CC(=O)O)NC(=O)Nc3c(O)ccn(C)c3=O)c2)c1` [1-528, sodium (S)-3-(4-(3-methoxyphenyl)thiophen-2-yl)-3-(3-(1-methyl-4-oxido-2-oxo-1,2-dihydropyridin-3-yl)ureido)propanoate] was run?
Its IC50 is under 0.02 µM.

For `Cn1ccc(O)c(NC(=O)N[C@@H](CC(=O)O)c2cccc(-c3ccc4c(c3)OCO4)c2)c1=O` [1-516, sodium (S)-3-(3-(benzo[d][1,3]dioxol-5-yl)phenyl)-3-(3-(1-methyl-4-oxido-2-oxo-1,2-dihydropyridin-3-yl)ureido)propanoate], which IC50 is on record?
Its IC50 is under 0.02 µM.

How did the IC50 turn out when `CCn1cc(C)c(O)c(NC(=O)N[C@@H](CC(=O)O)c2cccc(-c3ccccc3C)c2)c1=O` [1-443, sodium (S)-3-(3-(1-ethyl-5-methyl-4-oxido-2-oxo-1,2-dihydropyridin-3-yl)ureido)-3-(2′-methylbiphenyl-3-yl)propanoate] was run?
Its IC50 is under 0.2 µM.

`Cc1cc(-c2cccc(OC(F)(F)F)c2)cc([C@H](CC(=O)O)NC(=O)Nc2c(O)cc(C)n(C)c2=O)c1` [1-631, sodium (S)-3-(3-(1,6-dimethyl-4-oxido-2-oxo-1,2-dihydropyridin-3-yl)ureido)-3-(5-methyl-3′-(trifluoromethoxy)biphenyl-3-yl)propanoate] was tested. Which IC50 did it give?
The IC50 was under 0.02 µM.

How did the IC50 turn out when `Cn1ccc(O)c(NC(=O)N[C@@H](CC(=O)O)c2cccc(-c3cccc(OC(F)(F)F)c3)c2)c1=O` [1-514, sodium (S)-3-(3-(1-methyl-4-oxido-2-oxo-1,2-dihydropyridin-3-yl)ureido)-3-(3′-(trifluoromethoxy)biphenyl-3-yl)propanoate] was run?
Its IC50 is under 0.02 µM.

With `Cc1ccc([C@H](CC(=O)O)NC(=O)Nc2c(O)ccn(C)c2=O)cc1-c1c(C)cccc1C` [1-545, sodium (S)-3-(3-(1-methyl-4-oxido-2-oxo-1,2-dihydropyridin-3-yl)ureido)-3-(2′,6,6′-trimethylbiphenyl-3-yl)propanoate] as the molecule, how does the IC50 read?
The IC50 was under 0.02 µM.

`Cn1ccc(O)c(NC(=O)N[C@@H](CC(=O)O)c2cccc(-c3nccs3)c2)c1=O` [1-630, sodium (S)-3-(3-(1-methyl-4-oxido-2-oxo-1,2-dihydropyridin-3-yl)ureido)-3-(3-(thiazol-2-yl)phenyl)propanoate] was tested. Which IC50 did it give?
The IC50 was under 0.02 µM.

`Cc1cn(C)c(=O)c(NC(=O)NC(CC(=O)O)c2cccc(-c3cncnc3)c2)c1O` (stereo not drawn) [1-478, sodium 3-(3-(1,5-dimethyl-4-oxido-2-oxo-1,2-dihydropyridin-3-yl)ureido)-3-(3-(pyrimidin-5-yl)phenyl)propanoate] was tested. Which IC50 did it give?
Its IC50 is under 0.2 µM.

`Cn1ccc(O)c(NC(=O)N[C@@H](CC(=O)O)c2cccc(-c3ccoc3)c2)c1=O` [1-559, sodium (S)-3-(3-(furan-3-yl)phenyl)-3-(3-(1-methyl-4-oxido-2-oxo-1,2-dihydropyridin-3-yl)ureido)propanoate] was tested. Which IC50 did it give?
The IC50 was under 0.02 µM.

For `Cn1ccc(O)c(NC(=O)N[C@@H](CC(=O)O)c2ccc(-c3cccc(Cl)c3)s2)c1=O` [1-619, sodium (S)-3-(5-(3-chlorophenyl)thiophen-2-yl)-3-(3-(1-methyl-4-oxido-2-oxo-1,2-dihydropyridin-3-yl)ureido)propanoate], which IC50 is on record?
The IC50 was under 0.2 µM.

`Cc1ccccc1-c1ccc([C@H](CC(=O)O)NC(=O)Nc2c(O)cc(C)n(C)c2=O)cc1` [1-637, sodium (S)-3-(3-(1,6-dimethyl-4-oxido-2-oxo-1,2-dihydropyridin-3-yl)ureido)-3-(2′-methylbiphenyl-4-yl)propanoate] was tested. Which IC50 did it give?
The IC50 was under 0.02 µM.

Which IC50 does the source give for `COc1ccccc1-c1cccc([C@H](CC(=O)O)NC(=O)Nc2c(O)c(C)cn(C)c2=O)c1` [1-456, sodium (S)-3-(3-(1,5-dimethyl-4-oxido-2-oxo-1,2-dihydropyridin-3-yl)ureido)-3-(2′-methoxybiphenyl-3-yl)propanoate] here?
The IC50 was under 0.2 µM.

`Cc1cn(C)c(=O)c(NC(=O)N[C@@H](CC(=O)O)c2cccc(-c3cc(F)cc(F)c3)c2)c1O` [1-453, sodium (S)-3-(3′,5′-difluorobiphenyl-3-yl)-3-(3-(1,5-dimethyl-4-oxido-2-oxo-1,2-di hydropyridin-3-yl)ureido)propanoate] was tested. Which IC50 did it give?
The IC50 was under 0.02 µM.

For `Cc1cc(O)c(NC(=O)N[C@@H](CC(=O)O)c2cc(-c3cccc(OC(F)(F)F)c3)ccc2F)c(=O)n1C` [1-595, sodium (S)-3-(3-(1,6-dimethyl-4-oxido-2-oxo-1,2-dihydropyridin-3-yl)ureido)-3-(4-fluoro-3′-(trifluoromethoxy)biphenyl-3-yl)propanoate], which IC50 is on record?
Its IC50 is under 0.02 µM.

With `Cn1ccc(O)c(NC(=O)N[C@@H](CC(=O)O)c2ccc(-c3cc(F)ccc3F)s2)c1=O` [1-614, sodium (S)-3-(5-(2,5-difluorophenyl)thiophen-2-yl)-3-(3-(1-methyl-4-oxido-2-oxo-1,2-dihydropyridin-3-yl)ureido)propanoate] as the molecule, how does the IC50 read?
The IC50 was under 0.02 µM.

With `Cc1cn(C)c(=O)c(NC(=O)NC(CC(=O)O)c2ccc(OCC(F)(F)F)c(-c3ccccc3)c2)c1O` (stereo not drawn) [1-491, sodium 3-(3-(1,5-dimethyl-4-oxido-2-oxo-1,2-dihydropyridin-3-yl)ureido)-3-(6-(2,2,2-trifluoroethoxy)biphenyl-3-yl)propanoate] as the molecule, how does the IC50 read?
Its IC50 is under 0.2 µM.

For `Cc1cn(C)c(=O)c(NC(=O)NC(CC(=O)O)c2cccc(-c3ccccc3Cl)c2)c1O` (stereo not drawn) [1-473, sodium 3-(2′-chlorobiphenyl-3-yl)-3-(3-(1,5-dimethyl-4-oxido-2-oxo-1,2-dihydropyridin-3-yl)ureido)propanoate], which IC50 is on record?
The IC50 was under 0.02 µM.

With `Cc1cn(C)c(=O)c(NC(=O)N[C@@H](CC(=O)O)c2cccc(-c3ccccc3F)c2)c1O` [1-441, sodium (S)-3-(3-(1,5-dimethyl-4-oxido-2-oxo-1,2-dihydropyridin-3-yl)ureido)-3-(2′-fluorobiphenyl-3-yl)propanoate] as the molecule, how does the IC50 read?
Its IC50 is under 0.02 µM.

For `CC(=O)c1cccc(-c2cccc(C(CC(=O)O)NC(=O)Nc3c(O)c(C)cn(C)c3=O)c2)c1` (stereo not drawn) [1-626, sodium 3-(3′-acetylbiphenyl-3-yl)-3-(3-(1,5-dimethyl-4-oxido-2-oxo-1,2-dihydropyridin-3-yl)ureido)propanoate], which IC50 is on record?
Its IC50 is under 0.02 µM.

How did the IC50 turn out when `Cc1cn(C)c(=O)c(NC(=O)N[C@@H](CC(=O)O)c2ccc(-c3ccccc3)cc2)c1O` [1-643, sodium (S)-3-(biphenyl-4-yl)-3-(3-(1,5-dimethyl-4-oxido-2-oxo-1,2-dihydropyridin-3-yl)ureido)propanoate] was run?
Its IC50 is under 0.2 µM.
